From PubChem BioAssay (NCI)
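In this assay, cells in 96-well plates receive the compound at five concentrations for 48 hours. Endpoints are linearly interpolated between the surrounding concentrations. Definition used: TGI = concentration required for complete inhibition of growth.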

Columns and labels:
Assay in all cases: NCI tumour cell line growth inhibition, 48 h
[1] = system: HL-60(TB) leukemia
[2] = system: SN12C renal
[3] = system: SK-MEL-5 melanoma
[4] = system: OVCAR-8 ovarian
[5] = system: UACC-257 melanoma
[6] = system: MDA-MB-435
[7] = system: OVCAR-5 ovarian
[8] = system: RPMI-8226 leukemia
[9] = system: HT29 colon
[10] = system: NCI-H23 lung

| Structure (SMILES) | TGI [1] [µM] | TGI [2] [µM] | TGI [3] [µM] | TGI [4] [µM] | TGI [5] [µM] | TGI [6] [µM] | TGI [7] [µM] | TGI [8] [µM] | TGI [9] [µM] | TGI [10] [µM] |
| --- | --- | --- | --- | --- | --- | --- | --- | --- | --- | --- |
| CCCC(CC)c1cc(O)c(O)cc1C(CC)CCC (centres undefined) | > 10 | > 10 | > 10 | > 10 | > 10 | > 10 | > 10 | > 10 | > 10 | > 10 |
| COC(=O)NC(Nc1ccc(C)cc1)(C(F)(F)F)C(F)(F)F | > 100 | > 100 | > 100 | > 100 | > 100 | > 100 | > 100 | > 100 | > 100 | > 100 |
| O=C(c1ccccc1)c1ccc2nc(-c3c(Cl)c(Cl)c(Cl)c(Cl)c3C(=O)Nc3ccco3)[nH]c2c1 | 98.3 | > 100 | > 100 | > 100 | > 100 | 42.7 | > 100 | > 100 | > 100 | > 100 |
| COc1ccc2c3c([nH]c2c1)-c1nc2ccccc2c(=O)n1CC3 | > 25 | > 25 | > 25 | > 25 | > 25 | > 25 | > 25 | > 25 |  |  |
| CC(=O)Nc1nc(C)c(S(=O)(=O)NC(=O)N2c3ccccc3CCc3ccccc32)s1 | > 100 | > 100 | > 100 | > 100 | > 100 | > 100 | > 100 | > 100 | > 100 | > 100 |
| N#C[C@H]1C(=O)C(c2nc3ccccc3[nH]2)S[C@H]1c1ccccc1 (some centres undefined) | > 100 | 91.3 | > 100 | > 100 | > 100 | 87.8 | > 100 | 89.7 | > 100 | 76.1 |
| O=[N+]([O-])c1cccc([N+](=O)[O-])c1Cl | 24.2 | 79.9 | 32.7 | 31.5 | 23.6 | 35.3 | 43.1 | > 100 | 45.1 | 40.5 |
| O=C1NC(=S)N/C1=C\c1ccc(Sc2ccccc2C(=O)O)s1 | > 100 | > 100 | > 100 | > 100 | > 100 | > 100 | > 100 | > 100 | > 100 | > 100 |
| O=C1c2ccccc2C2(c3ccc(Cl)cc3)N[C@@H]3CCCC[C@@H]3N12 (some centres undefined) | > 100 | > 100 | > 100 | > 100 | > 100 | > 100 | > 100 | > 100 |  | > 100 |
| COC(CC1(CCNc2ccccc2)C(=O)N(COCC[Si](C)(C)C)c2ccccc21)OC (centres undefined) | 98.2 | 53.6 | > 100 | 35.1 | 29.5 | 38.5 | 35 | > 100 | 30 | 32.9 |
| COc1ccc(OC)c(-c2cn3c(n2)sc2ccccc23)c1 | > 100 | > 100 | > 100 | > 100 | > 100 | > 100 | > 100 | > 100 | > 100 | > 100 |
| O=P1(N(CCCl)CCCl)NCCCO1 (centres undefined) | 220 | > 250 | > 250 | > 238 | > 250 | > 250 | > 238 | > 250 | > 231 | > 250 |
| CCn1c(O)c(C(=O)NC(C)c2ccc([N+](=O)[O-])cc2)c(=O)n(CC)c1=S (centres undefined) | 5.11 | 15 | 11.3 |  | 16.6 | 13.6 | 6.77 | 15 | 5.17 | 4.63 |
| CC(C)CCCC(C)[C@H]1CC[C@H]2NCCCC[C@]12C (some centres undefined) | 5.91 | 18.7 | 3.39 | > 25.4 | 9.37 | 4.1 | 6.03 | 4.01 | 5.54 | 23.8 |
| Cn1c(=O)[nH]n(-c2ccc3ccccc3c2)c1=O | > 100 | > 100 | > 100 | > 100 | > 100 | > 100 | > 100 | > 100 | > 100 | > 100 |
| COc1ccc(C2C3=CONC3CC3CCCCC32)cc1 (centres undefined) | > 100 |  | > 100 | > 100 | > 100 | > 100 | > 100 | > 100 | > 100 | > 100 |
| Cc1ccc(C2(N3CCOCC3)OC(C)(C)c3cccc4cccc2c34)cc1 (centres undefined) | > 100 | 32.5 | 35.1 | 33.6 | 34.6 | 32.6 | 34.4 | 37.9 | 31.8 | 34.9 |
| Cc1c(Cl)c(=O)oc2cc(OCC(O)COC(C)C)ccc12 (centres undefined) | 56.9 |  | 38.3 | > 100 | > 100 | > 100 | > 100 | > 100 | > 100 | > 100 |
| Nc1cc2ncnc(Nc3cccc(Br)c3)c2cn1 | > 100 | > 100 | > 100 | > 100 | > 100 | > 100 | > 100 | > 100 | > 100 | > 100 |
| Cc1ccc(C(=O)NN=C(/N=N/c2cccc(C)c2)c2ccc(N(C)C)cc2)cc1 | > 100 | > 100 | > 100 | > 100 | > 100 | > 100 | > 100 | > 100 | > 100 | > 100 |
